Read-outs that look alike come from different tables or passages of the source.
Experiments:
[1] = In vitro metabolic stability, liver microsome incubation (human); type: in vitro ADME; details: human, liver microsomes; 1 mg/mL liver microsome protein, 37° C.; read-out: T1/2 in human liver microsome min
Description: The in vitro metabolic stability of the compounds disclosed herein was determined through incubation of liver microsomes of various species. A proper amount of test compound was added into a liver microsome reaction system (1 mg/mL liver microsome protein, 25 U/mL glucose-6 phosphate dehydrogenase, 1 mM NADP, 6 mM D-glucose 6-phosphate and 5 mM MgCl2), and then the mixture was incubated in a water bath kettle at 37° C. to start the reaction. At each time point, 100 μL of the reaction system was added into a centrifuge tube containing 400 μL of internal standard working solution (containing a 200 ng/mL solution of dexamethasone, diclofenac, tolbutamide and labetalol in acetonitrile) precooled at 0° C. so as to stop the reaction, and the mixture was then centrifuged at 10,000 g for 10 min at 4° C. The supernatant was collected for LC-MS assay so as to obtain the values of in vitro metabolic half-life of the test compounds in liver microsomes of various species.

[2] = target: T1, hP2X4 (human purinergic P2X receptor subtype 4) (Homo sapiens, UniProt Q99571); assay: FLIPR assay of intracellular calcium increase induced by activation of hP2X4 expressed in HEK293 cells (agonist BZ-ATP 2.5 μM); type: cell-based; details: HEK293 cells stably expressing hP2X4, FLIPR, read-out: P2X4 IC50
T1 sequence (Q99571 1-404 isoform Q99571-2): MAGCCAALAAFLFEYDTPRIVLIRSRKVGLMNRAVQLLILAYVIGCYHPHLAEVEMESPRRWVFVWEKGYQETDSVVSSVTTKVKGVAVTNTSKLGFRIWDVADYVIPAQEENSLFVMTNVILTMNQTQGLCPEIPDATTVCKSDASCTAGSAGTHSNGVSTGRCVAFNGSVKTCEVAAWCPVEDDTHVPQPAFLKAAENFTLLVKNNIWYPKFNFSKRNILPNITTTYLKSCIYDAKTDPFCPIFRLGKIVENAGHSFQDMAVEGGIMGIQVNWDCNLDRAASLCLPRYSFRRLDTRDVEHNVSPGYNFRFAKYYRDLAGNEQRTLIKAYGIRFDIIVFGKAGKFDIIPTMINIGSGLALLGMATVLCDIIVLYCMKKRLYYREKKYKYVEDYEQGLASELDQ
Description: The antagonist property of the compounds disclosed herein was determined using the FLIPR (fluorescence imaging plate reader) method, wherein the compounds are inhibitors for the intracellular calcium increase induced by activation of hP2X4 (human purinergic P2X receptor subtype 4, accession No. NM_001256796.2) expressed in HEK293 cells (human renal epithelial cell line, ATCC).
HEK293 cells stably expressing hP2X4 were cultured in DMEM high glucose medium containing 10% FBS (fetal bovine serum, Biosera, FB-1058/500), 1% penicillin-streptomycin (Gibco, 15140-122) and 1 mg/mL G418 (CABIOCHE, 345810) in a cell incubator (37° C., […]). Cells at 400,000 cells/mL were seeded into a 384-well plate (10,000 cells/well) 18-24 h prior to the FLIPR experiment and then incubated overnight in a cell incubator. On the day of the experiment, the medium was discarded and the cells were washed in an FLIPR buffer (0.3 mL of probenecid (Thermo, P36400), 0.6 mL of 1 M HEPES (Invitrogen, 15630080) and 29.1 mL of HBSS (Invitrogen, 14065056) per 30 mL of the buffer). Each well was added with 20 μL of 0.5× Calcium 6 fluorescent dye (Molecular Devices, R8190) and then the cells were subjected to dye-loading incubation at 37° C. for 1.5 h. Each well was added with 10 μL of respective test compound (dissolved in DMSO at a concentration of 10 mM and serially diluted with buffer) or vehicle and the mixture was equilibrated for 30 min at room temperature. The cell plate was then placed in the FLIPR for baseline fluorescence measurements (excitation at 485 nm and emission at 525-535 nm). An agonist (BZ-ATP (Sigma, B6396) at a final concentration of 2.5 μM) or a vehicle (ultrapure water) was then added at 10 μL/well, fluorescence values were measured for 2 min at 1-second intervals, and finally the output fluorescence counts were analyzed.

Compound | half-life [1] | IC50 ([2]; numeric values) | IC50 ([2]; class symbols)
COc1cccc(Cn2cc3c(S(N)(=O)=O)cc(NC(=O)Cc4ccccc4Cl)cc3n2)c1 [Compound 36-A, 2-(2-chlorophenyl)-N-(2-(3-methoxybenzyl)-4-sulfamoyl-2H-indazol-6-yl)acetamide] | 86.3 min |  | 10 to 50 nM
COCCOc1cccc(CC(=O)Nc2cc(S(N)(=O)=O)c3cn(C(F)F)nc3c2)c1 [Compound 116, N-(2-(difluoromethyl)-4-sulfamoyl-2H-indazol-6-yl)-2-(3-(2-methoxyethoxy)phenyl)acetamide] |  |  | 200 to 5000 nM
CC1(N2Cc3cc(NC(=O)Cc4ccccc4Cl)cc(S(N)(=O)=O)c3C2)COC1 [Compound 130, 2-(2-chlorophenyl)-N-(2-(3-methyloxetan-3-yl)-7-sulfamoylisoindolin-5-yl)acetamide] |  |  | 200 to 5000 nM
NS(=O)(=O)c1cc(NC(=O)Cc2ccccc2Cl)cc2c1CN(C(=O)c1ccc(F)cc1)C2 [Compound 131, 2-(2-chlorophenyl)-N-(2-(4-fluorobenzoyl)-7-sulfamoylisoindolin-5-yl)acetamide] |  |  | 10 to 50 nM
NS(=O)(=O)c1cc(NC(=O)Cc2ccccc2Cl)cc2c1CN(Cc1ccc(F)cc1)C2 [Compound 132, 2-(2-chlorophenyl)-N-(2-(4-fluorobenzyl)-7-sulfamoyliodo-5-yl)acetamide] |  |  | 200 to 5000 nM
NS(=O)(=O)c1cc(NC(=O)CC2CCCCC2O)cc2nn(C(F)F)cc12 (centres unmarked) [Compound 136, N-(2-(difluoromethyl)-4-sulfamoyl-2H-indazol-6-yl)-2-(2-hydroxycyclohexyl)acetamide] |  |  | 200 to 5000 nM
COc1ccc(Cn2cc3c(S(C)(=N)=O)cc(NC(=O)Cc4ccccc4Cl)cc3n2)cc1 (centres unmarked) [Compound 137, 2-(2-chlorophenyl)-N-(2-(4-methoxybenzyl)-4-(S-methylsulfonylimino)-2H-indazol-6-yl)acetamide] |  |  | 200 to 5000 nM
C[S@](=N)(=O)c1cc(NC(=O)Cc2ccccc2Cl)cc2nn(Cc3ccc(F)cc3)cc12 [Compound 138, (S)-2-(2-chlorophenyl)-N-(2-(4-fluorophenylmethyl)-4-(S-methylsulfonimidoyl)-2H-indazol-6-yl)acetamide] |  |  | 200 to 5000 nM
C[S@@](=N)(=O)c1cc(NC(=O)Cc2ccccc2Cl)cc2nn(Cc3ccc(F)cc3)cc12 [Compound 138A, (R)-2-(2-chlorophenyl)-N-(2-(4-fluorophenylmethyl)-4-(S-methylsulfonimidoyl)-2H-indazol-6-yl)acetamide] |  |  | 200 to 5000 nM
Cc1ccccc1CC(=O)Nc1cc([S@@](C)(=N)=O)c2cn(Cc3ccc(F)cc3)nc2c1 [Compound 139, (S)—N-(2-(4-fluorophenylmethyl)-4-(S-methylsulfonimidoyl)-2H-indazol-6-yl)-2-(o-phenylmethyl)acetamide] |  |  | 200 to 5000 nM
Cc1ccccc1CC(=O)Nc1cc([S@](C)(=N)=O)c2cn(Cc3ccc(F)cc3)nc2c1 [Compound 139A] |  |  | 200 to 5000 nM
COc1ccccc1CC(=O)Nc1cc(S(C)(=N)=O)c2cn(Cc3ccc(F)cc3)nc2c1 (centres unmarked) [Compound 140, N-(2-(4-fluorophenylmethyl)-4-(S-methylsulphonimidoyl)-2H-indazol-6-y)-2-(2-methoxyphenyl)acetamide] |  |  | 200 to 5000 nM
N-(2-(4-chlorobenzyl)-4-sulfamoyl-2H-indazol-6-yl)-2-(2-chlorophenyl)acetamide [Compound 89] |  |  | ≤ 10 nM
N-(4-(N,N-bis(4-methoxybenzyl)sulfamoyl)-1-(4-(trifluoromethyl)benzyl)-1H-indazol-6-yl)-2-(2-chlorophenyl)acetamide [Compound 90A] |  |  | ≤ 10 nM
N-(4-(N,N-bis(4-methoxybenzyl)sulfamoyl)-1-(4-fluorobenzyl)-1H-indazol-6-yl)-2-(2-chlorophenyl)acetamide [Compound 88A] |  |  | ≤ 10 nM

Results, then the compound that gave them:

half-life [1] | IC50 ([2]; numeric values) | IC50 ([2]; class symbols) | Compound
6340 min | 4.9 nM |  | Cn1cc2c(S(N)(=O)=O)cc(NC(=O)Cc3ccccc3Cl)cc2n1 [Compound 3-A, 2-(2-chlorophenyl)-N-(2-methyl-4-sulfamoyl-2H-indazol-6-yl)acetamide]
155 min | 6.3 nM |  | Cn1ncc2c(S(N)(=O)=O)cc(NC(=O)Cc3ccccc3Cl)cc21 [Compound 3-B, 2-(2-chlorophenyl)-N-(1-methyl-4-sulfamoyl-1H-indazol-6-yl)acetamide]
73.6 min |  | ≤ 10 nM | CCn1ncc2c(S(N)(=O)=O)cc(NC(=O)Cc3ccccc3Cl)cc21 [Compound 4-B, (4-sulfonamide-6-N-(2-chlorophenylacetyl)-1-ethyl)-indazole]
59.3 min | 4.8 nM |  | CC(C)Cn1cc2c(S(N)(=O)=O)cc(NC(=O)Cc3ccccc3Cl)cc2n1 [Compound 7-A, 2-(2-chlorophenyl)-N-(2-isobutyl-4-sulfamoyl-2H-indazol-6-yl)acetamide]
24.5 min |  | 10 to 50 nM | CC(C)C(C)n1cc2c(S(N)(=O)=O)cc(NC(=O)Cc3ccccc3Cl)cc2n1 (centres unmarked) [Compound 10, 2-(2-chlorophenyl)-N-(2-(3-methylbutan-2-yl)-4-sulfamoyl-2H-indazol-6-yl)acetamide]
18.1 min | 21.8 nM |  | NS(=O)(=O)c1cc(NC(=O)Cc2ccccc2Cl)cc2c1cnn2CC(F)F [Compound 12-B, 2-(2-chlorophenyl)-N-(1-(2,2-difluoroethyl)-4-sulfamoyl-1H-indazol-6-yl)acetamide]
96.6 min |  | ≤ 10 nM | C=CCn1ncc2c(S(N)(=O)=O)cc(NC(=O)Cc3ccccc3Cl)cc21 [Compound 14-B]
64.8 min | 1.6 nM |  | NS(=O)(=O)c1cc(NC(=O)Cc2ccccc2Cl)cc2nn(CC3CCC3)cc12 [Compound 24-A, 2-(2-chlorophenyl)-N-(2-(cyclobutylmethyl)-4-sulfamoyl-2H-indazol-6-yl)acetamide]
44.9 min |  | ≤ 10 nM | NS(=O)(=O)c1cc(NC(=O)Cc2ccccc2Cl)cc2nn(CC3CCCC3)cc12 [Compound 31-A, 2-(2-chlorophenyl)-N-(2-(cyclopentylmethyl)-4-sulfamoyl-2H-indazol-6-yl)acetamide]
57.7 min |  | 10 to 50 nM | COc1cccc(Cn2ncc3c(S(N)(=O)=O)cc(NC(=O)Cc4ccccc4Cl)cc32)c1 [Compound 36-B, 2-(2-chlorophenyl)-N-(1-(3-methoxybenzyl)-4-sulfamoyl-1H-indazol-6-yl)acetamide]
79.2 min |  | 10 to 50 nM | COc1ccccc1Cn1cc2c(S(N)(=O)=O)cc(NC(=O)Cc3ccccc3Cl)cc2n1 [Compound 37-A, 2-(2-chlorophenyl)-N-(2-(2-methoxybenzyl)-4-sulfamoyl-2H-indazol-6-yl)acetamide]
 |  | 200 to 5000 nM | NS(=O)(=O)c1cc(NC(=O)Cc2ccccc2Cl)cc2nn(CCN3CCOCC3)cc12 [Compound 118, 2-(2-chlorophenyl)-N-(2-(2-morpholinoethyl)-4-sulfamoyl-2H-indazol-6-yl)acetamide]
 |  | 200 to 5000 nM | NS(=O)(=O)c1cc(NC(=O)Cc2ccccc2Cl)cc2c1cnn2CCN1CCOCC1 [Compound 118A, 2-(2-chlorophenyl)-N-(1-(2-morpholinoethyl)-4-sulfamoyl-1H-indazol-6-yl)acetamide]
 |  | 50 to 200 nM | NS(=O)(=O)c1cc(NC(=O)Cc2ccccc2Cl)cc2c1cnn2CC1CCOCC1 [Compound 141A, 2-(2-chlorophenyl)-N-(4-sulfamoyl-1-((tetrahydro-2H-pyran-4-yl)methyl)-1H-indazol-6-yl)acetamide]

Source: US12503444B2, “Compound containing benzene ring and application thereof” (WUHAN LL SCIENCE AND TECHNOLOGY DEVELOPMENT CO., LTD., priority 2019, dated 2025)
